Data on one molecule can be found in patent US12398128B2, “Physics-driven discovery of novel small therapeutic compounds for use as a BCL-2 inhibitor” (BAHCESEHIR UNIVERSITESI, priority 2021, dated 2025).

This test deals with HCT-116 colon cancer cell line. In words: MTT cell proliferation assay on HCT-116 cells. In kind it is cell-based. On the procedure: For cell culture experiments various cancer cell lines, HCT-116 colon cancer, U87-MG glial tumor, MCF7 breast cancer cell lines were used. Cells were seeded with high glucose DMEM medium (Biosera) supplemented with 10% FBS (Gibco) and 1× penicillin/streptomycin (Multicell). Twenty-four hours prior to molecule treatment, 10,000 cells were seeded into each well of 24-well cell culture plates. Molecules were used by preparing 4 mM stock solution in DMSO (Amresco). For molecule treatment, molecule stock solutions were diluted in DMEM with 10% FBS and added onto cells in each corresponding well. Final concentration of vehicle DMSO was 2% at maximum. Therefore, the vehicle group in experiments only included maximum of 2% DMSO concentration. We calculated the number of cells to be seeded to make sure that none of the cells reaches more than 60% confluency during the treatment period, as higher plate confluency levels would slow down cell proliferation independently from the molecule treatment.
Values of half-maximal inhibitory concentration were (IC50) determined by MTT cell proliferation assays. Different concentrations of molecules ranging between 10^-9 to 10^-4 M were tested on HCT-116 cell lines with single treatment. 570 nm absorbance values were recorded and IC50 values were calculated by dose response-inhibition curves and nonlinear regression analysis on GraphPad Prism 8 software. For cell proliferation assays we performed five days experiments and repeated experiments at least three times with all cell lines. […] Therefore, three days results were presented. MTT analysis were performed on 24-well plates with initially 1×10^4 cells/well, grown overnight, and then treated with the selected molecules with different concentrations for at least 3 days. Following the initial incubation day, molecules were added and after incubation with MTT at 37° C. for 4 hours, formazan was solubilized with DMSO (Sigma-Aldrich, St. Louis, USA) and absorbance was measured at 570 nm. […] The IC50 value of compound of formula I was determined to be 22 μm (FIG. 1).
Background: Tetrazolium assays rely on reduction of a dye to a coloured formazan, in cell work by metabolically active cells.

For `O=C(CSc1nc2ccc(N3C(=O)c4ccccc4C3=O)cc2s1)c1ccc(-c2ccccc2)cc1` [compound of formula I], under “HCT-116 cells treated with compound versus vehicle group”, the “cell morphology of treated HCT-116 cells” value was “apoptotic cell structures”. Also, the “proliferation of HCT-116 cells versus vehicle group (FIG. 1)” value (HCT-116 cells, MTT, cell viability over time, vehicle max 2% DMSO) is given as “reduced proliferation”. For the same molecule, for the setting “Homo sapiens, 72 h, HCT-116 cells, single treatment, 10^-9 to 10^-4 M, 570 nm absorbance, three days results, read-out: IC50 (half-maximal inhibitory concentration), MTT cell proliferation assay”, the IC50 stood at 22 µM.
